Reference: patent EP4299131A1, “HYDROPHILIC PHENALENONES AND THEIR USE IN ANTIMICROBIAL PHOTODYNAMIC THERAPY” (Centre national de la recherche scientifique, priority 2022, dated 2024)
Where two headings read alike, the source gives them in different places.

How the values were obtained:
[1] = Singlet oxygen quantum yield by chemical trapping with ADPA; format: physicochemical; details: D2O (470 nm); ADPA as chemical probe, Eosin Y as reference
Method: Chemical trapping experiments: Quantum yields of singlet oxygen produced by 1a-c was evaluated by monitoring the UV/Visible absorption change in an Agilent 8453 Diode-Array spectrophotometer of 3,3'-anthracene-9,10-diyldipropanoic acid (ADPA) which is a well-known singlet oxygen trap. […] A solution of 1a-c in deuterated water (A473nm = 0.06) was prepared and an aliquot of ADPA in deuterated water was added to reach A378nm = 0.74. The photoabsorption spectral change of ADPA solution with photosensitizers 1a-c was monitored following the decrease of the band at 382 nm. Plots of Ln(A/A0) vs. time (s) give linear graphs for which the slope is the experimental kinetic rate constant (k, s^-1) (Ao is the initial absorption intensity and A is the absorption intensity at the time t). From comparison of experimental rate constants between phenalenone derivatives 1a-c and two selected actinometers (Eosin Y and Riboflavin, see supporting information for results using Riboflavin) using optically-matched solutions, singlet oxygen quantum yields of the photosensitizers ΦΔ can be determined from the following equation: φΔ = (k)/(kref) × φΔ,ref [formula]

[2] = UV/Visible and fluorescence spectroscopy, fluorescence lifetime (TCSPC); format: physicochemical; details: for ΦF (fluorescence quantum yield): 6-ethoxyphenalenone as actinometer; for ε: at the longest-wavelength absorption maximum; for λmax(em): excited at 400 nm
Method: UV/Visible and fluorescence spectroscopy: UV-Vis spectra were recorded on an Agilent 8453 Diode-Array spectrophotometer in the range of 250-700 nm. Emission spectra were measured in an ISS PC1 spectrofluorometer at room temperature. Fluorescence quantum yields were determined using equation (1) and 6-ethoxy-phenalenone in methanol as reference. ΦF,sample = ΦF,reference (Areference)/(Asample)(Isample)/(Ireference)(((ηsample)/(ηreference)))^2 [formula] ΦF is the fluorescence quantum yields. A: is the absorbance in the wavelength of excitation, I correspond to area of the emission spectra and η is the refractive index of the solvent. The excitation wavelength was 400 nm for all steady state fluorescence experiments.
Luminescence lifetime measurements were carried out using a PicoQuant FluoTime 200 fluorescence lifetime spectrometer with a multichannel scaler (PicoQuant's Timeharp 250) with the time correlated single photon counting (TCSPC) method. As excitation resource laser 405 nm was employed.

[3] = test system: Staphylococcus aureus CIP76.25; test: Antibacterial photodynamic inactivation, MIC/MBC by micromethod in 96-well plates; format: cell-based
Method: (§1) To evaluate the biological activity of the molecules, the minimal inhibitory concentration (MIC) and the minimal bactericidal concentration (MBC) were determined on bacterial cultures (Staphylococcus aureus CIP76.25, Pseudomonas aeruginosa CIP76.110) by micromethod in 96-well plates. Briefly, bacterial cultures in log-phase were diluted in sterile PBS 1X at a concentration equivalent to 4×10^6 UFC/mL. Serial dilutions of different molecules were performed in PBS 1X to a final concentration from 200 to 1.5 µM and 50 µl of each dilution were added in the microplate wells. Then, 50 µl of diluted bacterial culture were added in each well. Two different plates for each strain were prepared: one plate for the dark condition and a second plate for light irradiation.
(§2) Two controls were included; a bacterial growth control with no molecule added and a negative control with PBS without bacterial inoculum and no molecules.
(§3) The microplate was incubated at 37°C for 1h in dark condition. After that, bacteria were irradiated with LED white light (total fluence: 25J/cm^2). During the time of irradiation, the second plate was maintained in the dark. Then, 100 µL of 2-fold concentrated TS broth were added in each well and the microplate was incubated at 37°C for 24h. The MIC values were determined as the lowest concentration without observed bacterial growth. For determination of the MBC, 100 µl from wells where no evident growth was observed were diluted in physiological water (NaCl 0.9%). All 10-fold serial dilutions were spread on TS agar plates using an automatic plater (easySPIRAL®, Interscience, Saint-Nom La Bretêche, France). After incubation at 37 °C for 24 h, colonies were counted to determine total CFU per mL (CFU/mL). The MBC corresponds to the concentration of the active compound for which 99.99% of the bacteria have been killed (i.e. 4 log reduction compared to the untreated control). Three independent experiments were performed with each strain.

[4] = test system: Pseudomonas aeruginosa CIP76.110; test: as above; format: cell-based; details: for MBC / MIC: Pseudomonas aeruginosa
Method: as §1, §2, §3

[5] = Singlet oxygen quantum yield by 1O2 phosphorescence at 1270 nm; format: physicochemical; details: phosphorescence method
Method: Singlet oxygen quantum yield measurements: Lifetime decays of singlet oxygen, O2(^1Δg), were acquired with a FluoTime 200 equipped with multichannel scaler Nanoharp 200. […] For the detection at 1270 nm a NIR PMT H10330A (Hamamatsu) was employed. The O2(^1Δg) quantum yields (ΦΔ) were determined by comparing the intensity at zero time of the 1270 nm signals to those of optically-matched solutions of SAPYR or Eosin Y as references.

[6] = actinometer value of SAPYR, excitation at 355 nm, ref [27]; cited from earlier work
[7] = Photochemical stability under blue light monitored by 1H NMR; format: physicochemical; details: D2O, irradiation at 470 nm (3.5 mW.cm^-2) for 24h, under oxygen or Argon
Method: Photochemical stability: In an NMR tube, a solution of dyes 1a-c or SAPYR in D2O ([C] = 17.5 mmol/L) was irradiated at 470 nm (3.5 mW.cm^-2) under oxygen or Argon atmosphere (the gas was bublled solution was oxygenated or degassed by bubbling through the solution for 5 minutes and put under gas atmosphere). 1H NMR spectra were recorded after 24h irradiation time for each sample.

[8] = CIP76, S.a, dark (D), read-out: MBC
[9] = CIP76, S.a, dark (D), read-out: MIC
[10] = CIP76, light or radiation study, S.a, light (L), LED white light, total fluence 25 J/cm^2, read-out: MBC
[11] = CIP76, light or radiation study, S.a, light (L), LED white light, total fluence 25 J/cm^2, read-out: MIC
[12] = CIP76, light or radiation study, P.a, light (L), LED white light, total fluence 25 J/cm^2, read-out: MBC
[13] = CIP76, light or radiation study, P.a, light (L), LED white light, total fluence 25 J/cm^2, read-out: MIC
[14] = CIP76, P.a, dark (D), read-out: MBC
[15] = CIP76, P.a, dark (D), read-out: MIC
[16] = D2O (470 nm), Eosin Y as actinometer
[17] = D2O, SAPYR as actinometer, excitation at 355 nm
[18] = DMSO, SAPYR as actinometer, excitation at 355 nm
[19] = MeOH, SAPYR as actinometer, excitation at 355 nm
[20] = CIP76, light or radiation study

Compound: COc1ccc2c3c(cc(C[N+](C)(C)Cc4ccccc4)c(-c4ccccc4)c13)C(=O)C=C2.[Cl-] [1a, N-benzyl-1-(6-methoxy-1-oxo-7-phenyl-1H-phenalen-8-yl)-N,N-dimethylmethanaminium chloride]
- ΦΔ [1]: 0.09
- TF (singlet lifetime) ([2]; DMSO): 6.04 ns
- Δλ (Stokes shift) ([2]; DMSO): 92 nm
- λabs ([2]; DMSO): 441 nm
- ΦF (fluorescence quantum yield) ([2]; DMSO): 0.069
- ε ([2]; DMSO): 11426 M⁻¹ cm⁻¹
- λmax(em) ([2]; DMSO): 533 nm
- TF (singlet lifetime) ([2]; H2O): 7.65 ns
- Δλ (Stokes shift) ([2]; H2O): 90 nm
- λabs ([2]; H2O): 459 nm
- ΦF (fluorescence quantum yield) ([2]; H2O): 0.241
- ε ([2]; H2O): 9239 M⁻¹ cm⁻¹
- λmax(em) ([2]; H2O): 549 nm
- TF (singlet lifetime) ([2]; MeOH): 8.15 ns
- Δλ (Stokes shift) ([2]; MeOH): 95 nm
- λabs ([2]; MeOH): 447 nm
- ΦF (fluorescence quantum yield) ([2]; MeOH): 0.221
- ε ([2]; MeOH): 9363 M⁻¹ cm⁻¹
- λmax(em) ([2]; MeOH): 542 nm
- MBC [3, 8]: > 200 µM
- MIC [3, 9]: 167 µM
- MBC [3, 10]: 133 µM
- MIC [3, 11]: 50 µM
- MBC [4, 12]: > 200 µM
- MIC [4, 13]: > 200 µM
- MBC [4, 14]: > 200 µM
- MIC [4, 15]: > 200 µM
- ΦΔ [5, 16]: 0.12
- ΦΔ [5, 17]: 0.06
- ΦΔ [5, 18]: 0.79
- ΦΔ [5, 19]: 0.10

Compound: COc1ccc2c3c(cc(C[n+]4ccccc4)c(-c4ccccc4)c13)C(=O)C=C2.[Cl-] [1b, 1-((6-methoxy-1-oxo-7-phenyl-1H-phenalen-8-yl)methyl)pyridin-1-ium chloride]
- ΦΔ [1]: 0.15
- TF (singlet lifetime) ([2]; DMSO): 6.24 ns
- Δλ (Stokes shift) ([2]; DMSO): 91 nm
- λabs ([2]; DMSO): 444 nm
- ΦF (fluorescence quantum yield) ([2]; DMSO): 0.067
- ε ([2]; DMSO): 10472 M⁻¹ cm⁻¹
- λmax(em) ([2]; DMSO): 535 nm
- TF (singlet lifetime) ([2]; H2O): 7.15 ns
- Δλ (Stokes shift) ([2]; H2O): 88 nm
- λabs ([2]; H2O): 463 nm
- ΦF (fluorescence quantum yield) ([2]; H2O): 0.192
- ε ([2]; H2O): 9259 M⁻¹ cm⁻¹
- λmax(em) ([2]; H2O): 551 nm
- TF (singlet lifetime) ([2]; MeOH): 7.65 ns
- Δλ (Stokes shift) ([2]; MeOH): 95 nm
- λabs ([2]; MeOH): 447 nm
- ΦF (fluorescence quantum yield) ([2]; MeOH): 0.209
- ε ([2]; MeOH): 9344 M⁻¹ cm⁻¹
- λmax(em) ([2]; MeOH): 542 nm
- MBC [3, 8]: > 200 µM
- MIC [3, 9]: > 200 µM
- MBC [3, 10]: 67 µM
- MIC [3, 11]: 50 µM
- MBC [4, 12]: > 200 µM
- MIC [4, 13]: > 200 µM
- MBC [4, 14]: > 200 µM
- MIC [4, 15]: > 200 µM
- ΦΔ [5, 16]: 0.11
- ΦΔ [5, 17]: 0.06
- ΦΔ [5, 18]: 0.63
- ΦΔ [5, 19]: 0.12

Compound: O=C1C(C[n+]2ccccc2)=Cc2cccc3cccc1c23 [SAPYR, reference compound]
- ΦΔ [6]: 1.02
- MBC [3, 20]: 167 µM
- MIC [3, 20]: 83.3 µM
- MBC [4, 20]: > 200 µM
- MIC [4, 20]: > 200 µM
- photodynamic effects ([4]; illumination under white light): did not exhibit any photodynamic effects
- photochemical stability [7]: complete decomposition

Compound: COc1ccc2c3c(cc(CN(CCO)CCO)c(-c4ccccc4)c13)C(=O)C=C2.Cl [1c, 8-((bis(2-hydroxyethyl)amino)methyl)-6-methoxy-7-phenyl-1H-phenalen-1-one chloride]
- ΦΔ [1]: 0.08
- TF (singlet lifetime) ([2]; DMSO): 5.38 ns
- Δλ (Stokes shift) ([2]; DMSO): 92 nm
- λabs ([2]; DMSO): 441 nm
- ΦF (fluorescence quantum yield) ([2]; DMSO): 0.071
- ε ([2]; DMSO): 11984 M⁻¹ cm⁻¹
- λmax(em) ([2]; DMSO): 533 nm
- TF (singlet lifetime) ([2]; H2O): 7.39 ns
- Δλ (Stokes shift) ([2]; H2O): 92 nm
- λabs ([2]; H2O): 459 nm
- ΦF (fluorescence quantum yield) ([2]; H2O): 0.217
- ε ([2]; H2O): 10053 M⁻¹ cm⁻¹
- λmax(em) ([2]; H2O): 551 nm
- TF (singlet lifetime) ([2]; MeOH): 8.24 ns
- Δλ (Stokes shift) ([2]; MeOH): 96 nm
- λabs ([2]; MeOH): 446 nm
- ΦF (fluorescence quantum yield) ([2]; MeOH): 0.233
- ε ([2]; MeOH): 12256 M⁻¹ cm⁻¹
- λmax(em) ([2]; MeOH): 542 nm
- MBC [3, 8]: > 200 µM
- MIC [3, 9]: > 200 µM
- MBC [3, 10]: 41.7 µM
- MIC [3, 11]: 41.7 µM
- MBC [4, 12]: 41.7 µM
- MIC [4, 13]: 33 µM
- MBC [4, 14]: > 200 µM
- MIC [4, 15]: > 200 µM
- ΦΔ [5, 16]: 0.09
- ΦΔ [5, 17]: 0.06
- ΦΔ [5, 18]: 0.91
- ΦΔ [5, 19]: 0.15
